Test [1] concerns Candida albicans. Description: Antifungal activity against Candida albicans SC5314 assessed as inhibition of biofilm formation by XTT assay. Type of test: functional, organism-based. (In general: Tetrazolium assays rely on reduction of a dye to a coloured formazan, in cell work by metabolically active cells.)
In test [2] the test system is Candida albicans. The experiment in a line: Antifungal activity against Candida albicans SC5314 assessed as inhibition of yeast cell to hyphae transition after 4 hrs by microscopic analysis. Type of test: functional, organism-based. The settings on record: SC5314, 4 h.
Test [3] relates to Candida albicans. Description: Antifungal activity against Candida albicans SC5314 by CLSI standard M27-A3 method. Type of test: functional.

≈ marks a conversion by molar mass, not a printed value.

For `C=C1C(=O)O[C@H]2C[C@H](C)[C@@H]3CC[C@@]4(C)O[C@@]34C[C@H]12`, the IC50 – broadly, the concentration that gives 50% inhibition – with Candida albicans [1] amounted to 38 µg/mL (≈ 153 µM); in the test with Candida albicans [2], 106 µg/mL (≈ 429 µM).

`C=C1C(=O)O[C@@H]2C[C@H](C)C(CCC(C)O)=CC[C@H]12` (stereo not given in full): the IC50 in the test with Candida albicans [1] and in the test with Candida albicans [2] was above 128 µg/mL each time.

In the case of `C=C1C(=O)O[C@@H]2C[C@@]3(C)CCC[C@H](C)[C@@]34O[C@H]4[C@H]12`, the IC50 was above 128 µg/mL with Candida albicans [1] and 118 µg/mL (≈ 477 µM) in the test with Candida albicans [2].

On to `C=C1C(=O)O[C@@H]2C[C@]3(C)[C@@H](CCC(C)=O)[C@@H]3C[C@H]12`, for which the concentration for half-maximal inhibition (IC50) was above 128 µg/mL in the test with Candida albicans [1] and 100 µg/mL (≈ 403 µM) in the test on Candida albicans [2].

Regarding `C=C1C(=O)O[C@@H]2C[C@H](C)C(CCC(C)OC(=O)C(C)CC)=CC[C@H]12` (stereo not given in full), the IC50 with Candida albicans [1] was above 128 µg/mL; in the test on Candida albicans [2], 105 µg/mL (≈ 314 µM).

Take `C=C(C(=O)O)[C@@H]1CC[C@@]2(C)CCC=C(C)C2C1` (stereo not given in full): the IC50 with Candida albicans [1] and with Candida albicans [2] was above 128 µg/mL throughout.

Consider `OC(Cn1cncn1)(Cn1cncn1)c1ccc(F)cc1F` [FLUCONAZOLE], for which the IC50 with Candida albicans [1] was 2 µg/mL (≈ 6.53 µM).

`C=C1C(=O)O[C@@H]2C[C@@]3(C)C[C@@H](O)CC(=C)[C@@H]3C[C@H]12` [IVALIN]: the figures for the IC50 in the test on Candida albicans [1] and in the test on Candida albicans [2] were 15.4 µg/mL (≈ 62 µM) and above 128 µg/mL, respectively.

Consider `C=C1C(=O)O[C@@H]2C[C@@]3(C)CCCC(=C)[C@]3(O)C[C@H]12` [TELEKIN], for which the values for the IC50 with Candida albicans [1] and with Candida albicans [2] were 36 µg/mL (≈ 145 µM) and above 128 µg/mL, respectively.

Take `C=C1C(=O)O[C@@H]2C[C@H](C)C(CCC(C)=O)=CC[C@H]12` [TOMENTOSIN]: the values for the IC50 in the test on Candida albicans [1] and in the test on Candida albicans [2] were above 128 µg/mL and 31.6 µg/mL (≈ 127 µM), respectively. In addition, in the test on Candida albicans [3], the MIC50 (in general, an inhibitory concentration at the 50% level, which refers to growth in some studies and to a panel of isolates in others) came out at 128 µg/mL (≈ 515 µM).

For the origin of these results see ChEMBL document CHEMBL3627687, “Sesquiterpenes from Carpesium macrocephalum inhibit Candida albicans biofilm formation and dimorphism” (Bioorg Med Chem Lett, 2015).
